Marks after values point to notes of the source that are not given here.
Experiment: adverse events in patients (CTCAE version 3.0)
Format: in vivo, human
Conditions: for Any motesanib-related AE, Grade 5 / Motesanib-related AE: Anorexia / Motesanib-related AE: Constipation / Motesanib-related AE: Deep vein thrombosis / Motesanib-related AE: Dehydration / Motesanib-related AE: Dermatitis acneiform / Motesanib-related AE: Diarrhea / Motesanib-related AE: Erythema / Motesanib-related AE: Fatigue / Motesanib-related AE: Hypertension / Motesanib-related AE: Nausea / Motesanib-related AE: Pulmonary embolism / Motesanib-related AE: Rash / Motesanib-related AE: Vomiting / Motesanib-related Arterial thromboembolic events (all grades) / Motesanib-related Arterial thrombosis, Grade 3 / Motesanib-related Arterial thrombosis, Grade 4 / Motesanib-related Cerebrovascular accident, Grade 2 / Motesanib-related Deep vein thrombosis, Grade 2 / Motesanib-related Deep vein thrombosis, Grade 3 / Motesanib-related Gallbladder disorder, Grade 1 / Motesanib-related Hemorrhagic events, Grade 1 / Motesanib-related Jugular vein thrombosis, Grade 2 / Motesanib-related Neutropenia, Grade 3 / Motesanib-related Pulmonary embolism, Grade 4 / Motesanib-related Pulmonary embolism, Grade 5 / Motesanib-related Venous thromboembolic events (all grades) / Patients with any motesanib-related AE / Any motesanib-related AE, Grade 3 / Any motesanib-related AE, Grade 4: gemcitabine/cisplatin
Experimental: Adverse events were recorded throughout the study and graded (including DLTs) according to the Common Terminology Criteria for Adverse Events, version 3.0. Samples for assessment of hematology, blood chemistry, urinalysis, and thyroid function were collected on day 1 of each cycle.

[1] = motesanib 75 mg QD (n = 6) + panitumumab
[2] = motesanib 100 mg QD (n = 6) + panitumumab
[3] = motesanib 125 mg QD (n = 11) + panitumumab

CC1(C)CNc2cc(NC(=O)c3cccnc3NCc3ccncc3)ccc21 [motesanib]
Any motesanib-related AE, Grade 5 [1]: 0 (0) n (%)
Motesanib-related AE: Anorexia [1]: 0 (0) n (%)
Motesanib-related AE: Constipation [1]: 2 (33) n (%)
Motesanib-related AE: Deep vein thrombosis [1]: 0 (0) n (%)
Motesanib-related AE: Dehydration [1]: 1 (17) n (%)
Motesanib-related AE: Dermatitis acneiform [1]: 2 (33) n (%)
Motesanib-related AE: Diarrhea [1]: 1 (17) n (%)
Motesanib-related AE: Erythema [1]: 2 (33) n (%)
Motesanib-related AE: Fatigue [1]: 2 (33) n (%)
Motesanib-related AE: Hypertension [1]: 4 (67) n (%)
Motesanib-related AE: Nausea [1]: 5 (83) n (%)
Motesanib-related AE: Pulmonary embolism [1]: 2 (33) n (%)
Motesanib-related AE: Rash [1]: 1 (17) n (%)
Motesanib-related AE: Vomiting [1]: 3 (50) n (%)
Motesanib-related Arterial thromboembolic events (all grades) [1]: 0 (0) n (%)
Motesanib-related Arterial thrombosis, Grade 3 [1]: 0 (0) n (%)
Motesanib-related Arterial thrombosis, Grade 4 [1]: 0 (0) n (%)
Motesanib-related Cerebrovascular accident, Grade 2 [1]: 0 (0) n (%)
Motesanib-related Deep vein thrombosis, Grade 2 [1]: 0 (0) n (%)
Motesanib-related Deep vein thrombosis, Grade 3 [1]: 0 (0) n (%)
Motesanib-related Gallbladder disorder, Grade 1 [1]: 1 (17) n (%)
Motesanib-related Hemorrhagic events, Grade 1 [1]: 0 (0) n (%)
Motesanib-related Jugular vein thrombosis, Grade 2 [1]: 1 (17) n (%)
Motesanib-related Neutropenia, Grade 3 [1]: 0 (0) n (%)
Motesanib-related Pulmonary embolism, Grade 4 [1]: 2 (33) n (%)
Motesanib-related Pulmonary embolism, Grade 5 [1]: 0 (0) n (%)
Motesanib-related Venous thromboembolic events (all grades) [1]: 3 (50) n (%)
Patients with any motesanib-related AE [1]: 6 (100) n (%)
Any motesanib-related AE, Grade 3 [2]: 1 (17) n (%)
Any motesanib-related AE, Grade 4 [2]: 2 (33) n (%)
Any motesanib-related AE, Grade 5 [2]: 0 (0) n (%)
Motesanib-related AE: Anorexia [2]: 2 (33) n (%)
Motesanib-related AE: Constipation [2]: 0 (0) n (%)
Motesanib-related AE: Deep vein thrombosis [2]: 1 (17) n (%)
Motesanib-related AE: Dehydration [2]: 0 (0) n (%)
Motesanib-related AE: Dermatitis acneiform [2]: 0 (0) n (%)
Motesanib-related AE: Diarrhea [2]: 0 (0) n (%)
Motesanib-related AE: Erythema [2]: 1 (17) n (%)
Motesanib-related AE: Fatigue [2]: 2 (33) n (%)
Motesanib-related AE: Hypertension [2]: 2 (33) n (%)
Motesanib-related AE: Nausea [2]: 2 (33) n (%)
Motesanib-related AE: Pulmonary embolism [2]: 2 (33) n (%)
Motesanib-related AE: Rash [2]: 0 (0) n (%)
Motesanib-related AE: Vomiting [2]: 1 (17) n (%)
Motesanib-related Arterial thromboembolic events (all grades) [2]: 0 (0) n (%)
Motesanib-related Arterial thrombosis, Grade 3 [2]: 0 (0) n (%)
Motesanib-related Arterial thrombosis, Grade 4 [2]: 0 (0) n (%)
Motesanib-related Cerebrovascular accident, Grade 2 [2]: 0 (0) n (%)
Motesanib-related Deep vein thrombosis, Grade 2 [2]: 0 (0) n (%)
Motesanib-related Deep vein thrombosis, Grade 3 [2]: 1 (17)^b n (%)
Motesanib-related Gallbladder disorder, Grade 1 [2]: 0 (0) n (%)
Motesanib-related Hemorrhagic events, Grade 1 [2]: 1 (17) n (%)
Motesanib-related Jugular vein thrombosis, Grade 2 [2]: 0 (0) n (%)
Motesanib-related Neutropenia, Grade 3 [2]: 0 (0) n (%)
Motesanib-related Pulmonary embolism, Grade 4 [2]: 2 (33)^b n (%)
Motesanib-related Pulmonary embolism, Grade 5 [2]: 0 (0) n (%)
Motesanib-related Venous thromboembolic events (all grades) [2]: 2 (33) n (%)
Patients with any motesanib-related AE [2]: 4 (67) n (%)
Any motesanib-related AE, Grade 3 [3]: 6 (55) n (%)
Any motesanib-related AE, Grade 4 [3]: 3 (27) n (%)
Motesanib-related AE: Anorexia [3]: 4 (36) n (%)
Motesanib-related AE: Constipation [3]: 2 (18) n (%)
Motesanib-related AE: Deep vein thrombosis [3]: 2 (18) n (%)
Motesanib-related AE: Dehydration [3]: 3 (27) n (%)
Motesanib-related AE: Dermatitis acneiform [3]: 2 (18) n (%)
Motesanib-related AE: Diarrhea [3]: 7 (64) n (%)
Motesanib-related AE: Erythema [3]: 0 (0) n (%)
Motesanib-related AE: Fatigue [3]: 6 (55) n (%)
Motesanib-related AE: Hypertension [3]: 5 (45) n (%)
Motesanib-related AE: Nausea [3]: 4 (36) n (%)
Motesanib-related AE: Pulmonary embolism [3]: 3 (27) n (%)
Motesanib-related AE: Rash [3]: 2 (18) n (%)
Motesanib-related AE: Vomiting [3]: 2 (18) n (%)
Motesanib-related Arterial thromboembolic events (all grades) [3]: 1 (9) n (%)
Motesanib-related Arterial thrombosis, Grade 3 [3]: 1 (9) n (%)
Motesanib-related Arterial thrombosis, Grade 4 [3]: 0 (0) n (%)
Motesanib-related Cerebrovascular accident, Grade 2 [3]: 0 (0) n (%)
Motesanib-related Deep vein thrombosis, Grade 2 [3]: 0 (0) n (%)
Motesanib-related Deep vein thrombosis, Grade 3 [3]: 2 (18)^c n (%)
Motesanib-related Gallbladder disorder, Grade 1 [3]: 0 (0) n (%)
Motesanib-related Hemorrhagic events, Grade 1 [3]: 3 (27) n (%)
Motesanib-related Jugular vein thrombosis, Grade 2 [3]: 0 (0) n (%)
Motesanib-related Neutropenia, Grade 3 [3]: 0 (0) n (%)
Motesanib-related Pulmonary embolism, Grade 4 [3]: 3 (27)^c n (%)
Motesanib-related Pulmonary embolism, Grade 5 [3]: 0 (0) n (%)
Motesanib-related Venous thromboembolic events (all grades) [3]: 3 (27) n (%)
Patients with any motesanib-related AE [3]: 11 (100) n (%)
Any motesanib-related AE, Grade 5 (motesanib 125 mg QD (n = 11) + panitumumab, sudden death): 1 (9)^a n (%)
tolerability of the combination treatment (motesanib, panitumumab, and gemcitabine/cisplatin at the doses and schedule administered): not tolerable
patients with motesanib-related adverse events (of the 33 patients who received motesanib (88%)): 29 patients
deaths considered related to motesanib and panitumumab (pulmonary embolism, 50 mg QD, and sudden death, 125 mg QD, within 30 days of treatment): Two
grade 3/4 arterial thrombosis (treatment regimen as a whole): 2 patients
grade 3 deep vein thrombosis (treatment regimen as a whole): 3 patients
grade 4 pulmonary embolism (treatment regimen as a whole): 8 patients
